This note sets out measurements from patent US11578083B2, “Pyrimidinium compounds and their mixtures for combating animal pests” (BASF SE, priority 2017, dated 2023).

Holding throughout (assay type): in vivo
For assay [1], the system named is green peach aphid (Myzus persicae). The assay is described as follows: Test 2 green peach aphid, artificial diet (mixtures). An excerpt: (§1) For evaluating control of green peach aphid (Myzus persicae) through systemic means the test unit consisted of 96-well-microtiter plates containing liquid artificial diet under an artificial membrane.
(§2) The compounds or mixtures were formulated using a solution containing 75% water and 25% DMSO. Concentrations of formulated compounds or mixtures were pipetted into the aphid diet, using a custom built pipetter, at two replications.
(§3) For experimental mixtures in these tests identical volumes of both mixing partners at the desired concentrations respectively, were mixed together.
(§4) After application, 5-8 adult aphids were placed on the artificial membrane inside the microtiter plate wells. The aphids were then allowed to suck on the treated aphid diet and incubated at 23±1° C., 50±5% RH for 3 days. Aphid mortality and fecundity was then visually assessed.

For assay [2], the system named is tobacco budworm (Heliothis virescens). The assay is described as follows: Test 4 tobacco budworm, insect diet with eggs (mixtures). The procedure:
(§5) For evaluating control of tobacco budworm (Heliothis virescens) the test unit consisted of 96-well-microtiter plates containing an insect diet and 15-25 H. virescens eggs.
The compounds or mixtures were formulated using a solution containing 75% water and 25% DMSO. Concentrations of formulated compounds or mixtures were sprayed onto the insect diet at 10 μl, using a custom built micro atomizer, at two replications.
as §3
(§6) After application, microtiter plates were incubated at 28±1° C., 80±5% RH for 5 days. Egg and larval mortality was then visually assessed.

Assay [3] deals with Greenhouse Whitefly (Trialeurodes vaporariorum). The assay is described as follows: Test 11 Greenhouse Whitefly, egg plant leaf disk (mixtures). As to conditions: use rate 2500 ppm. The method, then: For evaluating control of Greenhouse Whitefly (Trialeurodes vaporariorum) the test unit consisted of 96-well-microtiter plates containing a leaf disk of egg plant leaf disk with white fly eggs.
The compounds or mixtures were formulated using a solution containing 75% water and 25% DMSO. Different concentrations of formulated compounds or mixtures were sprayed onto the insect diet at 2.5 μl, using a custom built micro atomizer, at two replications.
as §3
After application, microtiter plates were incubated at 23±1° C., 65±5% RH for 6 days. Mortality of hatched crawlers was then visually assessed.

The subject of assay [4] is green peach aphid (Myzus persicae). The assay is described as follows: Test 8 green peach aphid, artificial diet (mixtures).
Text: as §1, §2, §3, §4

Assay [5] deals with boll weevil (Anthonomus grandis). The assay is described as follows: Test 3 boll weevil, insect diet with eggs (mixtures). The method, then: (§7) For evaluating control of boll weevil (Anthonomus grandis) the test unit consisted of 24-well-microtiter plates containing an insect diet and 20-30 A. grandis eggs.
(§8) The compounds or mixtures were formulated using a solution containing 75% water and 25% DMSO. Concentrations of formulated compounds or mixtures were sprayed onto the insect diet at 20 μl, using a custom built micro atomizer, at two replications.
as §3
(§9) After application, microtiter plates were incubated at 23±1° C., 50±5% RH for 5 days. Egg and larval mortality was then visually assessed.

In assay [6] the test system is vetch aphid (Megoura viciae). The assay is described as follows: Test 7 vetch aphid, leaf disks (mixtures). As to conditions: use rate 2500 ppm. The procedure:
For evaluating control of vetch aphid (Megoura viciae) through contact or systemic means the test unit consisted of 24-well-microtiter plates containing broad bean leaf disks.
The compounds or mixtures were formulated using a solution containing 75% water and 25% DMSO. Concentrations of formulated compounds or mixtures were sprayed onto the leaf disks at 2.5 μl, using a custom built micro atomizer, at two replications.
as §3
After application, the leaf disks were air-dried and 5-8 adult aphids placed on the leaf disks inside the microtiter plate wells. The aphids were then allowed to suck on the treated leaf disks and incubated at 23±1° C., 50±5% RH for 5 days. Aphid mortality and fecundity was then visually assessed.

For assay [7], the system named is Cowpea aphid (Aphis craccivora). The assay is described as follows: B.3 Cowpea aphid leaf disk test. As to conditions: foliar, 120 h, Cowpea aphid, Dose 1 ppm, 5 days, read-out: Mortality %. The procedure:
If not otherwise specified, the test solutions are prepared as follows:
The active compound is dissolved at the desired concentration in a mixture of 1:1 (vol:vol) distilled water: acetone. The test solution is prepared at the day of use.
B.3 Cowpea aphid (Aphis craccivora):
For evaluating control of Cowpea aphid through contact or systemic means the test unit consists of 24-well-microtiter plates containing broad bean leaf disks.
The compounds are formulated using a solution containing 75% v/v water and 25% v/v DMSO. Different concentrations of formulated compounds are sprayed onto the leaf disks at 2.5 μl, using a custom built micro atomizer, at two replications.
After application, the leaf disks are air-dried and 5-8 adult aphids placed on the leaf disks inside the microtiter plate wells. The aphids are then allowed to suck on the treated leaf disks and incubated at about 23±1° C. and about 50±5% relative humidity for 5 days. Aphid mortality and fecundity is then visually assessed.

Assay [8] has as its system Rice green leafhopper (Nephotettix virescens). The assay is described as follows: B.1 Rice green leafhopper, sprayed rice seedlings. The settings on record: Rice green leafhopper, Dose 1 ppm, after 72 hours, read-out: Mortality %. The procedure:
B.1 Rice Green Leafhopper (Nephotettix virescens):
Rice seedlings are cleaned and washed 24 hours before spraying. The active compounds are formulated in 50:50 acetone:water (vol:vol), and 0.1% vol/vol surfactant (EL 620) is added. Potted rice seedlings are sprayed with 5 ml test solution, air dried, placed in cages and inoculated with 10 adults. Treated rice plants are kept at about 28-29° C. and relative humidity of about 50-60%. Percent mortality is recorded after 72 hours.

Assay [9] concerns Rice brown plant hopper (Nilaparvata lugens). The assay is described as follows: B.2 Rice brown plant hopper, sprayed rice seedlings. As to conditions: Rice brown plant hopper, Dose 1 ppm, after 72 hours, read-out: Mortality %. The procedure:
B.2 Rice Brown Plant Hopper (Nilaparvata lugens):
Rice seedlings are cleaned and washed 24 hours before spraying. The active compounds are formulated in 50:50 acetone:water (vol:vol) and 0.1% vol/vol surfactant (EL 620) is added. Potted rice seedlings are sprayed with 5 ml test solution, air dried, placed in cages and inoculated with 10 adults. Treated rice plants are kept at about 28-29° C. and relative humidity of about 50-60%. Percent mortality is recorded after 72 hours.

For assay [10], the system named is Thrips (Dichromothrips corbetti). The assay is described as follows: B.4 Thrips floral-immersion test. As to conditions: Dose 10 ppm, 72 hours after treatment, read-out: Mortality %. The method, then: B.4 Thrips (Dichromothrips Corbetti):
Dichromothrips corbetti adults used for bioassay are obtained from a colony maintained continuously under laboratory conditions. For testing purposes, the test compound is diluted in a 1:1 mixture of acetone:water (vol:vol), plus 0.01% vol/vol Alkamuls® EL 620 surfactant.
Thrips potency of each compound is evaluated by using a floral-immersion technique. Plastic petri dishes are used as test arenas. All petals of individual, intact orchid flowers are dipped into treatment solution and allowed to dry. Treated flowers are placed into individual petri dishes along with about 20 adult thrips. The petri dishes v then covered with lids. All test arenas are held under continuous light and a temperature of about 28° C. for duration of the assay. After 3 days, the numbers of live thrips are counted on each flower, and along inner walls of each petri dish. The percent mortality is recorded 72 hours after treatment.

The test system of assay [11] is boll weevil (Anthonomus grandis). The assay is described as follows: Test 9 boll weevil, insect diet with eggs (mixtures). The method, then:
as §7, §8, §3, §9

Assay [12] relates to tobacco budworm (Heliothis virescens). The assay is described as follows: Test 10 tobacco budworm, insect diet with eggs (mixtures). The settings on record: use rate 2500 ppm. The procedure:
as §5
The compounds or mixtures were formulated using a solution containing 75% water and 25% DMSO. Different concentrations of formulated compounds or mixtures were sprayed onto the insect diet at 10 μl, using a custom built micro atomizer, at two replications.
as §3, §6

For assay [13], the system named is brown planthopper (Nilaparvata lugens). The assay is described as follows: Test 6 brown planthopper, foliar spray (mixtures). The settings on record: Table 6.1, after 7 days, solo application Pymetrozine, use rate 300 ppm. The procedure: For evaluating control of brown planthopper (Nilaparvata lugens) by foliar spray method. Clean potted rice seedlings with upper leaf portion cut are properly labeled. Placed three potted rice plants per treatment concentration/combination on top of the rotating disc (270 mm) and sprayed with the 12 mL spray solution. Treated plants are allowed to air-dry in the laboratory for about an hour. After air-drying, covered each treated rice plant. Each treated plant was infested with brown planthoppers using a suction vacuum. Plants are maintained at 27° C.±1° C., 50±5% RH and 24 hours light conditions in a holding room. Percent mortality is recorded 7 days after infestation by counting both the dead and alive brown planthoppers on the plants and on the water.

The term mortality denotes the percentage killed.

In the case of `CC1(C)C(C=C(Cl)Cl)C1C(=O)OC(C#N)c1cccc(Oc2ccccc2)c1` (stereo not drawn) [Alpha-Cypermethrin, alpha-cypermethrin, reference compound], the Average control % in [1] (Table 2.6, solo application Alpha-Cypermethrin, use rate 10 ppm) turned out to be 0%; in [2] (Table 4.2, solo application Alpha-Cypermethrin, use rate 2 ppm) it was 50%.

With `CC(C)N1C(=O)N(c2ccccc2)CS/C1=N\C(C)(C)C` [Buprofezin, buprofezin, reference compound], in [3] (Table 11.2, solo application Buprofezin), the Average control % was 50%.

As to `C[C@@H](NC(=O)C(C#N)C(C)(C)C)c1ccc(Cl)cc1Cl` (stereo partly shown) [Dicyclomet, dicyclomet, reference compound], in assay [4] (Table 8.2, solo application Dicyclomet, use rate 2500 ppm), the Average control % is on record as 0%.

Consider `N#CCNC(=O)c1cnccc1C(F)(F)F` [Flonicamid, flonicamid, reference compound], for which the Average control % in assay [1] (Table 2.5, solo application Flonicamid, use rate 2 ppm) was 0%.

As for `O=C(NC(=O)c1c(F)cccc1F)Nc1ccc(Oc2ccc(C(F)(F)F)cc2Cl)cc1F` [Flufenoxuron, flufenoxuron, reference compound], the Average control % in [1] (Table 2.2, solo application Flufenoxuron, use rate 0.8 ppm) is reported as 0%; in [5] (Table 3.1, solo application Flufenoxuron, use rate 0.8 ppm), 0%.

Turning to `CON=CNC(=O)c1ccc(C2=NOC(c3cc(Cl)cc(Cl)c3)(C(F)(F)F)C2)cc1C` (stereo not shown) [Fluxametamide, fluxametamide, reference compound], in assay [5] (Table 3.3, solo application Fluxametamide, use rate 0.4 ppm), the Average control % stood at 25%.

For `Cc1nn(C)c(Cl)c1C(=O)Nc1cccc2c1C(C)OC2(C)C` (stereo not shown) [Furametpyr, furametpyr, reference compound], the Average control % in assay [6] (Table 7.1, solo application Furametpyr) is reported as 0%.

On to `C[n+]1c([O-])c(-c2ccccc2)c(=O)n2c1SC[C@H]2c1cnc(Cl)s1` [I-S-1, S-3-(2-chlorothiazol-5-yl)-8-methyl-7-oxo-6-phenyl-2,3-dihydrothiazolo[3,2-a] pyrimidin-8-ium-5-olate], for which the mortality at 1 ppm in assay [7], in assay [8] and in [9] was 0% throughout. The mortality at 10 ppm in [10] was 0%.

For `COC(=O)N(C(=O)N1CO[C@@]2(C(=O)OC)Cc3cc(Cl)ccc3C2=N1)c1ccc(OC(F)(F)F)cc1` [Indoxacarb, indoxacarb, reference compound], the Average control % in assay [1] (Table 2.4, solo application Indoxacarb, use rate 2 ppm) was found to be 0%.

Consider `COCC(=O)N(c1c(C)cccc1C)C(C)C(=O)OC` (stereo not shown) [Metalaxyl, metalaxyl, reference compound], for which the Average control % in assay [6] (Table 7.2, solo application Metalaxyl) is 0%; in assay [11] (Table 9.2, solo application Metalaxyl, use rate 500 ppm), 0%.

As to `Cc1nn(C)c(F)c1C(=O)Nc1ccccc1C(C)CC(C)C` (stereo not shown) [Penflufen, penflufen, reference compound], the Average control % in assay [11] (Table 9.1, solo application Penflufen, use rate 2500 ppm) is recorded as 0%.

As for `C=CCOC1=NS(=O)(=O)c2ccccc21` [Probenazole, probenazole, reference compound], the Average control % was 0% in [4] (Table 8.1, solo application Probenazole, use rate 500 ppm) and 0% in assay [12] (Table 10.1, solo application Probenazole).

For `CC1=NNC(=O)N(/N=C/c2cccnc2)C1` [Pymetrozine, pymetrozine, reference compound], the Average control % in assay [2] (Table 4.1, solo application Pymetrozine, use rate 10 ppm) is recorded as 0%; in assay [13] it was 26%.

With `O=C1CCc2cccc3c2N1CC3` [Pyroquilon, pyroquilon, reference compound], the Average control % in assay [12] (Table 10.2, solo application Pyroquilon) was 0%.

`C[Si](C)(C)CC(O)(Cn1cncn1)c1ccc(F)cc1` (stereo not shown) [Simeconazol, simeconazole, reference compound]: the Average control % in assay [3] (Table 11.1, solo application Simeconazol) came to 0%.

`O=c1c(-c2cccc(C(F)(F)F)c2)c([O-])[n+](Cc2cncnc2)c2ccccn12` [Triflumezopyrim, triflumezopyrim, reference compound]: the Average control % in assay [1] (Table 2.3, solo application Triflumezopyrim, use rate 0.4 ppm) is recorded as 0%.

For the compound spinosad [reference compound], the Average control % in assay [1] (Table 2.1, solo application Spinosad, use rate 4 ppm) was found to be 0%.
